Measured values taken from ChEMBL document CHEMBL4715830, “Design, synthesis and biological evaluation of suramin-derived dual antagonists of the proinflammatory G protein-coupled receptors P2Y and GPR17” (Eur J Med Chem, 2020).
Activity calls are given as the source filed them. The rule behind the calls is not given here.

Experiments:
P2Y purinoceptor 2 = P2Y purinoceptor 2 (Homo sapiens, UniProt P41231); assay: (§1) Antagonist activity at human P2Y2 receptor expressed in human 1321N1 cells assessed as inhibition of ATP-induced intracellular calcium influx preincubated for 20 mins followed by ATP addition measured at 0.4 secs interval for 60 times by Oregon Green BAPTA-1/AM dye-based fluorescence assay; assay type: functional, cell-based
Sequence of P2Y purinoceptor 2 (P41231 whole entry): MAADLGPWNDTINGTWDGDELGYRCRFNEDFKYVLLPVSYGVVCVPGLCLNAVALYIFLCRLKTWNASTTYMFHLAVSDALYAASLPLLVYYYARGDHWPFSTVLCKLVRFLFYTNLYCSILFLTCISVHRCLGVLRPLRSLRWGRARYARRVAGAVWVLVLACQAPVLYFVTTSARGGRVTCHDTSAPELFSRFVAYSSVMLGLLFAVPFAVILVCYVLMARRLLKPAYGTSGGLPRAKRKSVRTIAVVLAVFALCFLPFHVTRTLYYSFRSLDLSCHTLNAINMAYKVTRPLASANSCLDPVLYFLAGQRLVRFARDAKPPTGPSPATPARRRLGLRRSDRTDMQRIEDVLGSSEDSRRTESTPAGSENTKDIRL

[1] = molecular target: T1, Uracil nucleotide/cysteinyl leukotriene receptor (Homo sapiens, UniProt Q13304); assay: as §1, with “GPR17” for “P2Y2 receptor”, “influx at 10 uM” for “influx”, “assay relative to control” for “assay”; assay type: functional, cell-based
T1 sequence (Q13304 whole entry): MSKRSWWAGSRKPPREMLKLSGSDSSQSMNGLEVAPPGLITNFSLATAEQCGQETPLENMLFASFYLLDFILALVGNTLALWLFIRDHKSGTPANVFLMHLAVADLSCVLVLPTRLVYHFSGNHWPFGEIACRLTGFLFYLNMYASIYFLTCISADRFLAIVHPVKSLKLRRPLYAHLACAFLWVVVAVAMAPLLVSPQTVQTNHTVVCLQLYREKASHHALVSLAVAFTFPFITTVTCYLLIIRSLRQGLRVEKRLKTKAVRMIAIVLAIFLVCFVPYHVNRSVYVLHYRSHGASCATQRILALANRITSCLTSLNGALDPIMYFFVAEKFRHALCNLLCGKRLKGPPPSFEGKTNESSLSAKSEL

[2] = molecular target: T1, Uracil nucleotide/cysteinyl leukotriene receptor; assay: Antagonist activity at human GPR17 expressed in human 1321N1 cells assessed as inhibition of ATP-induced intracellular calcium influx preincubated for 20 mins followed by ATP addition measured at 0.4 secs interval for 60 times by Oregon Green BAPTA-1/AM dye-based fluorescence assay; assay type: functional, cell-based
[3] = molecular target: P2Y purinoceptor 1 (Homo sapiens) (UniProt P47900); assay: (§2) Antagonist activity at human P2Y1 receptor expressed in human 1321N1 cells assessed as inhibition of ADP-induced intracellular calcium influx at 10 uM preincubated for 20 mins followed by ADP addition measured at 0.4 secs interval for 60 times by Oregon Green BAPTA-1/AM dye-based fluorescence assay; assay type: functional, cell-based
Sequence of P2Y purinoceptor 1 (Homo sapiens) (P47900 whole entry): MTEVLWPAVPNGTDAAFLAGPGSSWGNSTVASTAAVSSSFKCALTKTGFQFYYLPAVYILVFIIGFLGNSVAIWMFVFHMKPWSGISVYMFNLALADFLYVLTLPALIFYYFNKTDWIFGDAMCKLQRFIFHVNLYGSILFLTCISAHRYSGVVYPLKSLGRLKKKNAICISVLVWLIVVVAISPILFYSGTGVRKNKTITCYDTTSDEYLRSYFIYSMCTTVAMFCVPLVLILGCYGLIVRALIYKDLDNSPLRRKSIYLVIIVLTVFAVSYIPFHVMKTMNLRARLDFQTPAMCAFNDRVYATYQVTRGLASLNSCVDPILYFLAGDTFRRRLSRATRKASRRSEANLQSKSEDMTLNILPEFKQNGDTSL

[4] = molecular target: T2, P2Y purinoceptor 14 (Homo sapiens) (UniProt Q15391); assay: Antagonist activity at recombinant human Gi/Go-coupled GP2Y14 receptor expressed in CHOK1 cells assessed as inhibition of […]-induced inhibition of beta-arrestin recruitment at 10 uM by pathhunter assay; assay type: cell-based
T2 sequence (whole entry): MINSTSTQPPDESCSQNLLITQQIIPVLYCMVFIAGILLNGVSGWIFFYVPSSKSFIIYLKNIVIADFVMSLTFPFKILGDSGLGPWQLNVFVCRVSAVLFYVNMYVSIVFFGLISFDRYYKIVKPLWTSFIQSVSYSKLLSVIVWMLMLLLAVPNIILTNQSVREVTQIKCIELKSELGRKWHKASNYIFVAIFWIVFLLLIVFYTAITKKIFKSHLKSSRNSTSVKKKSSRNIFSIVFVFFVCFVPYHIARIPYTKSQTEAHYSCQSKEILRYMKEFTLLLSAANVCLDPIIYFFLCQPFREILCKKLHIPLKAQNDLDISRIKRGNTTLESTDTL

[5] = molecular target: P2Y purinoceptor 12 (Homo sapiens) (UniProt Q9H244); assay: Antagonist activity at recombinant human Gi/Go-coupled GP2Y12 receptor expressed in CHOK1 cells assessed as inhibition of 2-(Methylthio)ADP-induced inhibition of beta-arrestin recruitment at 10 uM by pathhunter assay; assay type: cell-based; conditions: CHO-K1
Sequence of P2Y purinoceptor 12 (Homo sapiens) (Q9H244 whole entry): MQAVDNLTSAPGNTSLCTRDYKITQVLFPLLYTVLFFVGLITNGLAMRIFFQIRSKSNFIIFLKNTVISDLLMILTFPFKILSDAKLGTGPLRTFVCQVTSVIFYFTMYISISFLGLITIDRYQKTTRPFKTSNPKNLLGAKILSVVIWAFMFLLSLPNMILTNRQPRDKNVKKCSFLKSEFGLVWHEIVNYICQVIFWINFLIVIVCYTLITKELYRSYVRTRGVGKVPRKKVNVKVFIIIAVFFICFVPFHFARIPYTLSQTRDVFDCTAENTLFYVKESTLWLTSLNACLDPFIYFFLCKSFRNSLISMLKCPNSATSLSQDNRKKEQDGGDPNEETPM

[6] = molecular target: P2Y purinoceptor 4 (Homo sapiens) (UniProt P51582); assay: as §2, with “P2Y4” for “P2Y1”, “UTP-induced” for “ADP-induced”, “10 to 100” for “10”, “UTP” for “ADP”; assay type: functional, cell-based; conditions: dose 10-100 µM
Sequence of P2Y purinoceptor 4 (Homo sapiens) (P51582 whole entry): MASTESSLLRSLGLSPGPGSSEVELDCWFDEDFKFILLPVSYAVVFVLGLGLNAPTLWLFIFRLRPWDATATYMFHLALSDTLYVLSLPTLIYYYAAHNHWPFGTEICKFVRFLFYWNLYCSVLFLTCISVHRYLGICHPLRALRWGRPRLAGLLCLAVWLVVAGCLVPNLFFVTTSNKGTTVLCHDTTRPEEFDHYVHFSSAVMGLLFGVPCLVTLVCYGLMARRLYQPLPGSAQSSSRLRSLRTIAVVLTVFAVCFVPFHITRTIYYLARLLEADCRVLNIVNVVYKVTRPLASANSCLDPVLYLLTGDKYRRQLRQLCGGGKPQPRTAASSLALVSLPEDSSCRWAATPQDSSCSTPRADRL

P2Y purinoceptor 6 = P2Y purinoceptor 6 (Rattus norvegicus, UniProt Q63371); assay: (§3) Antagonist activity at rat P2Y6 receptor expressed in human 1321N1 cells assessed as inhibition of UDP-induced intracellular calcium influx preincubated for 20 mins followed by UDP addition measured at 0.4 secs interval for 60 times by Oregon Green BAPTA-1/AM dye-based fluorescence assay; assay type: functional, cell-based
Sequence of P2Y purinoceptor 6 (Q63371 whole entry): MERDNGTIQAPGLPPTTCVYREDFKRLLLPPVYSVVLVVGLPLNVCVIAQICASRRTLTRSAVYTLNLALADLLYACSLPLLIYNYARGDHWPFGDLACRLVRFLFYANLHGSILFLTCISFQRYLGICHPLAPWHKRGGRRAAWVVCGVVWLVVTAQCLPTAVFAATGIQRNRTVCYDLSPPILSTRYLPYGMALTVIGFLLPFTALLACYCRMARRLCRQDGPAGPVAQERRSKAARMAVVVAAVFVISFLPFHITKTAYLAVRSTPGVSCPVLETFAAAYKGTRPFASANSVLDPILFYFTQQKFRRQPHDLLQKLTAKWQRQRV

[7] = molecular target: P2Y purinoceptor 6 (Rattus norvegicus) (UniProt Q63371); assay: as §3, with “influx at 10 to 100 uM” for “influx”; assay type: functional, cell-based; conditions: dose 10-100 µM
Sequence of P2Y purinoceptor 6 (Rattus norvegicus) (Q63371 whole entry): as above

[8] = Chemical stability of compound in pH 7 MeOH/water solution at 70 degC measured after 24 hrs by HPLC-MS analysis; assay type: physicochemical; conditions: buffer, pH 7, 24 h
[9] = Drug metabolism in pH 9 MeOH/water solution assessed as methyl 4-(2-chlorobenzamido)benzenesulfonate formation measured after 24 hrs by HPLC-MS analysis
[10] = Chemical stability of compound in pH 3 MeOH/water solution measured after 24 hrs by HPLC-MS analysis; assay type: physicochemical; conditions: buffer, pH 3, 24 h
[11] = Chemical stability of compound in pH 7 MeOH/water solution measured after 24 hrs by HPLC-MS analysis; assay type: physicochemical; conditions: buffer, pH 7, 24 h

| Compound | IC50 (P2Y purinoceptor 2) | inhibition [1] | IC50 [2] | inhibition [3] | inhibition [4] | inhibition [5] | inhibition [6] | IC50 (P2Y purinoceptor 6) | inhibition [7] | Stabilty [8] | Stabilty [10] | Stabilty [11] | Drug metabolism [9] |
| --- | --- | --- | --- | --- | --- | --- | --- | --- | --- | --- | --- | --- | --- |
| Cc1ccc(C(=O)Nc2ccc(S(=O)(=O)O)c3cc(S(=O)(=O)O)cc(S(=O)(=O)O)c23)cc1NC(=O)c1cccc(NC(=O)Nc2cccc(C(=O)Nc3cc(C(=O)Nc4ccc(S(=O)(=O)O)c5cc(S(=O)(=O)O)cc(S(=O)(=O)O)c45)ccc3C)c2)c1 [SURAMIN HEXASODIUM] | > 100 µM | 33% | > 100 µM |  |  |  |  |  |  |  |  |  |  |
| O=C(Nc1cccc(S(=O)(=O)Oc2cccc([N+](=O)[O-])c2)c1)c1ccc(Cl)cc1 |  |  |  | inactive | inactive | inactive | inactive |  | inactive |  |  |  |  |
| O=C(Nc1cccc(S(=O)(=O)Oc2cccc([N+](=O)[O-])c2)c1)c1cccc(F)c1 |  |  |  | inactive | inactive | inactive | inactive |  | inactive |  |  |  |  |
| COc1cccc(C(=O)Nc2ccc(S(=O)(=O)Oc3cccc([N+](=O)[O-])c3)cc2)c1 |  |  |  | inactive | inactive | inactive | inactive |  | inactive |  |  |  |  |
| O=C(Nc1cccc(S(=O)(=O)Oc2cccc([N+](=O)[O-])c2)c1)c1cccc(Cl)c1 |  |  |  | inactive | inactive | inactive | inactive |  | inactive |  |  |  |  |

Further lines, with some results ahead:

| IC50 (P2Y purinoceptor 2) | inhibition [1] | IC50 [2] | inhibition [3] | inhibition [4] | inhibition [5] | inhibition [6] | IC50 (P2Y purinoceptor 6) | inhibition [7] | Stabilty [8] | Stabilty [10] | Stabilty [11] | Compound | Drug metabolism [9] |
| --- | --- | --- | --- | --- | --- | --- | --- | --- | --- | --- | --- | --- | --- |
|  |  |  | inactive | inactive | inactive | inactive | 6.19 µM |  |  |  |  | Cc1cccc(C(=O)Nc2ccc(S(=O)(=O)Oc3cccc([N+](=O)[O-])c3)cc2)c1 |  |
|  |  |  | inactive | inactive | inactive | inactive |  | inactive |  |  |  | O=C(Nc1ccc(S(=O)(=O)Oc2cccc([N+](=O)[O-])c2)cc1)c1ccc(Cl)cc1 |  |
|  |  |  | inactive | inactive | inactive | inactive |  | inactive | Stable | Stable | Stable | O=C(Nc1ccc(S(=O)(=O)Oc2cccc([N+](=O)[O-])c2)cc1)c1ccccc1Cl | 1.4% |
